# Data as given in patent publication US6355799B1, “Substituted benzene compounds, process for their preparation, and herbicidal and defoliant compositions containing them” (ISK Americas Incorporated, priority 1997, dated 2002).
# Assays:
# Format in all cases: in vivo
# [1] = system: redroot pigweed (Amaranthus retroflexus, AMARE); experiment: Pre-emerge test, greenhouse herbicide activity screening; details: pre-emerge, 14 days after application, rating scale 0-100
# In short: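 Plants grown in 10 cm pots of sandy loam mix received acetone-dissolved compounds through a moving flat-fan nozzle. Doses ranged from 15 to 1000 g ai/ha. Pre-emerge pots were seeded one day earlier, post-emerge pots 8–21 days earlier. Fourteen days on, each pot was graded 0–100 for damage.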
# [2] = system: barnyardgrass (Echinochloa crus-galli, ECHCG); experiment: as above; details: pre-emerge, 14 days after application, rating scale 0-100
# In short: (§1)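 Fourteen days after spraying, crop and weed injury was graded visually from 0, no effect, to 100, every plant dead. Test substances were dissolved in acetone and applied at 15–1000 g ai/ha with a flat-fan nozzle. Application was either pre-emergence, one day after sowing, or post-emergence at the 2–3 leaf stage.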
# [3] = system: green foxtail (Setaria viridis, SETVI); experiment: as above; details: pre-emerge, 14 days after application, rating scale 0-100
# In short: as §1
# [4] = system: ivyleaf morningglory (Ipomoea hederacea, IPOHE); experiment: as above; details: pre-emerge, 14 days after application, rating scale 0-100
# In short: as §1
# [5] = system: johnsongrass (Sorghum halepense, SORHA); experiment: as above; details: pre-emerge, 14 days after application, rating scale 0-100
# In short: as §1
# [6] = system: lambsquarters (Chenopodium album, CHEAL); experiment: as above; details: pre-emerge, 14 days after application, rating scale 0-100
# In short: as §1
# [7] = system: large crabgrass (Digitaria sanguinalis, DIGSA); experiment: as above; details: pre-emerge, 14 days after application, rating scale 0-100
# In short: as §1
# [8] = system: sicklepod (Cassia obtusifolia, CASOB); experiment: as above; details: pre-emerge, 14 days after application, rating scale 0-100
# In short: as §1
# [9] = system: velvetleaf (Abutilon theophrasti, ABUTH); experiment: as above; details: pre-emerge, 14 days after application, rating scale 0-100
# In short: as §1
# [10] = system: field corn (Zea mays L., var. Dekalb 535, CORN); experiment: Pre-emerge test, crop safety; details: pre-emerge, 14 days after application, rating scale 0-100
# In short: as §1
# [11] = system: upland rice (Oryza sp., var. Tebonnet, RICE); experiment: Pre-emerge test, crop safety; details: pre-emerge, 14 days after application, rating scale 0-100
# In short: as §1
# [12] = system: barnyardgrass (Echinochloa crus-galli, ECHCG); experiment: Post-emerge test, greenhouse herbicide activity screening; details: post-emerge, 14 days after application, rating scale 0-100
# In short: (§2)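 Sandy loam pots; pre-emerge: sown 1 d pre-spray, surface-watered after, then bottom-watered. Post-emerge: sown 8–21 d before, 2–3 leaf stage, + 0.25% v/v NIS, bottom-watered. Acetone, 187 l/ha track spray, 15–1000 g ai/ha. 0–100 injury score, day 14.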
# [13] = system: green foxtail (Setaria viridis, SETVI); experiment: as above; details: post-emerge, 14 days after application, rating scale 0-100
# In short: as §2
# [14] = system: ivyleaf morningglory (Ipomoea hederacea, IPOHE); experiment: as above; details: post-emerge, 14 days after application, rating scale 0-100
# In short: as §2
# [15] = system: johnsongrass (Sorghum halepense, SORHA); experiment: as above; details: post-emerge, 14 days after application, rating scale 0-100
# In short: as §2
# [16] = system: lambsquarters (Chenopodium album, CHEAL); experiment: as above; details: post-emerge, 14 days after application, rating scale 0-100
# In short: as §2
# [17] = system: large crabgrass (Digitaria sanguinalis, DIGSA); experiment: as above; details: post-emerge, 14 days after application, rating scale 0-100
# In short: as §2
# [18] = system: redroot pigweed (Amaranthus retroflexus, AMARE); experiment: as above; details: post-emerge, 14 days after application
# In short: as §2
# [19] = system: sicklepod (Cassia obtusifolia, CASOB); experiment: as above; details: post-emerge, 14 days after application, rating scale 0-100
# In short: as §2
# [20] = system: velvetleaf (Abutilon theophrasti, ABUTH); experiment: as above; details: post-emerge, 14 days after application, rating scale 0-100
# In short: as §2
# [21] = system: field corn (Zea mays L., var. Dekalb 535, CORN); experiment: Post-emerge test, crop safety; details: post-emerge, 14 days after application, rating scale 0-100
# In short: as §1
# [22] = system: upland rice (Oryza sp., var. Tebonnet, RICE); experiment: Post-emerge test, crop safety; details: post-emerge, 14 days after application, rating scale 0-100
# In short: as §1
compound,measurement,setting,value
COc1c(Cl)cc(F)c(-n2c(=O)cc(C(F)(F)F)n(C)c2=O)c1SCCO [17-5],phytotoxicity rating AMARE,[1]; 63 g ai/ha,80
same,phytotoxicity rating AMARE,[1]; 250 g ai/ha,100
same,phytotoxicity rating ECHCG,[2]; 63 g ai/ha,0
same,phytotoxicity rating ECHCG,[2]; 250 g ai/ha,0
same,phytotoxicity rating SETVI,[3]; 63 g ai/ha,0
same,phytotoxicity rating SETVI,[3]; 250 g ai/ha,50
same,phytotoxicity rating IPOHE,[4]; 63 g ai/ha,30
same,phytotoxicity rating IPOHE,[4]; 250 g ai/ha,35
same,phytotoxicity rating SORHA,[5]; 63 g ai/ha,0
same,phytotoxicity rating SORHA,[5]; 250 g ai/ha,20
same,phytotoxicity rating CHEAL,[6]; 63 g ai/ha,90
same,phytotoxicity rating CHEAL,[6]; 250 g ai/ha,100
same,phytotoxicity rating DIGSA,[7]; 63 g ai/ha,0
same,phytotoxicity rating DIGSA,[7]; 250 g ai/ha,60
same,phytotoxicity rating CASOB,[8]; 63 g ai/ha,0
same,phytotoxicity rating CASOB,[8]; 250 g ai/ha,30
same,phytotoxicity rating ABUTH,[9]; 63 g ai/ha,60
same,phytotoxicity rating ABUTH,[9]; 250 g ai/ha,100
same,phytotoxicity rating CORN,[10]; 63 g ai/ha,0
same,phytotoxicity rating CORN,[10]; 250 g ai/ha,0
same,phytotoxicity rating RICE,[11]; 63 g ai/ha,0
same,phytotoxicity rating RICE,[11]; 250 g ai/ha,10
same,Post-emerge Herbicidal Activity ECHCG (phytotoxicity rating),[12]; 63 g ai/ha,0
same,Post-emerge Herbicidal Activity ECHCG (phytotoxicity rating),[12]; 250 g ai/ha,0
same,Post-emerge Herbicidal Activity SETVI (phytotoxicity rating),[13]; 63 g ai/ha,0
same,Post-emerge Herbicidal Activity SETVI (phytotoxicity rating),[13]; 250 g ai/ha,0
same,Post-emerge Herbicidal Activity IPOHE (phytotoxicity rating),[14]; 63 g ai/ha,30
same,Post-emerge Herbicidal Activity IPOHE (phytotoxicity rating),[14]; 250 g ai/ha,70
same,Post-emerge Herbicidal Activity SORHA (phytotoxicity rating),[15]; 63 g ai/ha,0
same,Post-emerge Herbicidal Activity SORHA (phytotoxicity rating),[15]; 250 g ai/ha,0
same,Post-emerge Herbicidal Activity CHEAL (phytotoxicity rating),[16]; 63 g ai/ha,40
same,Post-emerge Herbicidal Activity CHEAL (phytotoxicity rating),[16]; 250 g ai/ha,80
same,Post-emerge Herbicidal Activity DIGSA (phytotoxicity rating),[17]; 63 g ai/ha,0
same,Post-emerge Herbicidal Activity DIGSA (phytotoxicity rating),[17]; 250 g ai/ha,0
same,Post-emerge Herbicidal Activity AMARE (phytotoxicity rating),"[18]; 63 g ai/ha, rating scale 0-100 (0 no damage, 100 complete death)",10
same,Post-emerge Herbicidal Activity AMARE (phytotoxicity rating),"[18]; 250 g ai/ha, rating scale 0-100",40
same,Post-emerge Herbicidal Activity CASOB (phytotoxicity rating),[19]; 63 g ai/ha,10
same,Post-emerge Herbicidal Activity CASOB (phytotoxicity rating),[19]; 250 g ai/ha,20
same,Post-emerge Herbicidal Activity ABUTH (phytotoxicity rating),[20]; 63 g ai/ha,50
same,Post-emerge Herbicidal Activity ABUTH (phytotoxicity rating),[20]; 250 g ai/ha,80
same,Post-emerge Herbicidal Activity CORN (crop damage rating),[21]; 63 g ai/ha,0
same,Post-emerge Herbicidal Activity CORN (crop damage rating),[21]; 250 g ai/ha,10
same,Post-emerge Herbicidal Activity RICE (crop damage rating),[22]; 63 g ai/ha,0
same,Post-emerge Herbicidal Activity RICE (crop damage rating),[22]; 250 g ai/ha,0
